Data from the supplement of paper PMC8497498.

Legend:
[1] = tested on: Plasmodium vivax liver stage (primary human hepatocyte culture)
Description: (§1)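 Dose-response of P. vivax liver stages in primary human hepatocytes, with 8 points (10 uM-[…], v1) or 12 points in duplicate (50 uM-280 pM, v2). Read-out is high-content imaging of schizont net growth area, hypnozoite quantity and hepatic nuclei. EC50 and CC20 (20% nuclei loss) were fitted in CDD Vault from the highest-quality independent experiment; toxic-dose bell-shaped points were masked. '>' marks the highest concentration with less than 50% activity, and ND means a non-sigmoidal curve.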

[2] = tested on: primary human hepatocytes; assay: CC20 hepatic nuclei (20% reduction); higher = less toxic
Description: as §1

[3] = tested on: Plasmodium vivax liver stage (primary human hepatocyte culture); assay: maximum inhibition of schizont net growth area; higher = more active
Description: as §1

[4] = P. vivax isolate: Pv657, hepatocyte lot: BGW, assay mode: Radical Cure, 8-day (treatment from day 5 post-infection)
[5] = P. vivax isolate: IVS16-38, hepatocyte lot: PDC, assay mode: Prophylactic, 6-day
[6] = P. vivax isolate: Pv836, hepatocyte lot: BGW, assay mode: Radical Cure, 8-day (treatment from day 5 post-infection)
[7] = P. vivax isolate: Pv590, hepatocyte lot: UBV, assay mode: Radical Cure, 8-day (treatment from day 5 post-infection)
[8] = P. vivax isolate: Pv668, hepatocyte lot: BGW, assay mode: Radical Cure, 8-day (treatment from day 5 post-infection)
[9] = P. vivax isolate: Pv458, hepatocyte lot: UBV, assay mode: Radical Cure, 8-day (treatment from day 5 post-infection)
[10] = P. vivax isolate: Pv728, hepatocyte lot: BGW, assay mode: Radical Cure, 8-day (treatment from day 5 post-infection)
[11] = P. vivax isolate: Pv395, hepatocyte lot: UBV, assay mode: Prophylactic, 6-day
[12] = P. vivax isolate: Pv756, hepatocyte lot: BGW, assay mode: Radical Cure, 8-day (treatment from day 5 post-infection)

`COc1ccc(-c2cnc3ccc(NCc4ccc(S(N)(=O)=O)cc4)nn23)cn1` was tested, and the EC50 hypnozoite quantity [1, 4] was greater than 50 µM, the CC20 hepatic nuclei [2, 4] was greater than 50 µM and the maximum inhibition [3, 4] was 79.2%.
With `COc1ccccc1CNC(=O)CCn1c(=O)[nH]c2ccccc2c1=O` the EC50 hypnozoite quantity [1, 5] was greater than 10 µM, the “EC50 schizont net growth area” value [1, 5] was 0.68 µM and the CC20 hepatic nuclei [2, 5] was greater than 10 µM. The maximum inhibition [3, 5] was 98.3%.
`Cc1nc(Sc2ncnc3sc4c(c23)CCC4)sc1CC(N)=O` was tested, and the EC50 hypnozoite quantity [1, 6] was greater than 50 µM, the “EC50 schizont net growth area” value [1, 6] was 2.86 µM and the CC20 hepatic nuclei [2, 6] was greater than 50 µM. The maximum inhibition [3, 6] was 91%.
With `Cc1sc2ncnc(Sc3nc4ccccc4[nH]3)c2c1C` the EC50 hypnozoite quantity [1, 7] was greater than 50 µM, the “EC50 schizont net growth area” value [1, 7] was 1.62 µM and the CC20 hepatic nuclei [2, 7] was 46.9 µM. It also gave a maximum inhibition [3, 7] of 92.9%.
`N#CC(C#N)=NNc1cc(Cl)cc(Cl)c1` was tested, and the EC50 hypnozoite quantity [1, 8] was greater than 50 µM, the “EC50 schizont net growth area” value [1, 8] was 4.04 µM and the CC20 hepatic nuclei [2, 8] was 5.21 µM. It also gave a maximum inhibition [3, 8] of 85.1%.
For `O=S1(=O)C=CC2ON=C(c3ccc(Cl)cc3)C21` (stereo unspecified), the EC50 hypnozoite quantity [1, 8] was greater than 50 µM, the “EC50 schizont net growth area” value [1, 8] was greater than 1.85 µM and the CC20 hepatic nuclei [2, 8] was 37.6 µM. It also gave a maximum inhibition [3, 8] of 103%.
`O=S1(=O)C=CC2ON=C(c3c(Cl)cccc3Cl)C21` (stereo unspecified) gave an EC50 hypnozoite quantity [1, 8] greater than 50 µM, a CC20 hepatic nuclei [2, 8] of 45.7 µM and a maximum inhibition [3, 8] of 94.8%.
In the case of `O=c1c(Cl)c(Cl)cnn1-c1nc2ccccc2[nH]1`, the EC50 hypnozoite quantity [1, 9] is reported as greater than 3.33 µM, the CC20 hepatic nuclei [2, 9] is reported as greater than 3.33 µM and the maximum inhibition [3, 9] is reported as 89.7%.
With `Cn1c(Sc2ncnc3sccc23)nc2ccccc21` the EC50 hypnozoite quantity [1, 6] was greater than 50 µM, the “EC50 schizont net growth area” value [1, 6] was greater than 16.7 µM and the CC20 hepatic nuclei [2, 6] was 39.4 µM. For the same molecule, the maximum inhibition [3, 6] was 97%.
`O=C(Nc1cccnn1)N1CCC(=Cc2cccc(Oc3ccc(C(F)(F)F)cn3)c2)CC1` was tested, and the EC50 hypnozoite quantity [1, 10] was greater than 10 µM, the “EC50 schizont net growth area” value [1, 10] was 1.23 µM and the CC20 hepatic nuclei [2, 10] was greater than 10 µM. The maximum inhibition [3, 10] was 99%.
`O=C(NCCN1CCCC1)c1cc(NCCCCN2CCC(F)(F)CC2)nc2ccc(Cl)cc12` was tested, and the EC50 hypnozoite quantity [1, 4] was greater than 50 µM, the “EC50 schizont net growth area” value [1, 4] was 0.00316 µM and the CC20 hepatic nuclei [2, 4] was greater than 50 µM. For the same molecule, the maximum inhibition [3, 4] was 103%.
`O=C(Nc1nc(-c2ccccn2)cs1)C1CC1c1ccccc1F` (stereo unspecified) was tested, and the EC50 hypnozoite quantity [1, 11] was greater than 10 µM, the CC20 hepatic nuclei [2, 11] was greater than 10 µM and the maximum inhibition [3, 11] was 94.3%.
For `N#Cc1ccc(-c2cnc(N)c(-c3ccc(C(N)=O)cc3)n2)cc1`, the EC50 hypnozoite quantity [1, 4] was greater than 50 µM, the “EC50 schizont net growth area” value [1, 4] was 0.0012 µM and the CC20 hepatic nuclei [2, 4] was greater than 50 µM. For the same molecule, the maximum inhibition [3, 4] was 85.1%.
For `NS(=O)(=O)c1cccc(-c2ccc3ncc(N4CCOCC4)nc3c2)c1`, the EC50 hypnozoite quantity [1, 12] was greater than 50 µM, the “EC50 schizont net growth area” value [1, 12] was 0.57 µM and the CC20 hepatic nuclei [2, 12] was greater than 50 µM. The maximum inhibition [3, 12] was 88.2%.
In the case of `Nc1ncc(-c2ccc(C(F)(F)F)nc2)cc1-c1ccc(C(F)(F)F)nc1`, the EC50 hypnozoite quantity [1, 4] is reported as greater than 50 µM, the “EC50 schizont net growth area” value [1, 4] is reported as 0.19 µM and the CC20 hepatic nuclei [2, 4] is reported as greater than 50 µM. For the same molecule, the maximum inhibition [3, 4] was 87.5%.
In the case of `Nc1ncc(-c2cn[nH]c2)cc1-c1nc2cc(Cl)cnc2[nH]1`, the EC50 hypnozoite quantity [1, 4] is reported as greater than 50 µM, the “EC50 schizont net growth area” value [1, 4] is reported as greater than 50 µM and the CC20 hepatic nuclei [2, 4] is reported as greater than 50 µM. The maximum inhibition [3, 4] was 63.7%.
For `N=c1n(CCN2CCCCC2)c2ccccc2n1CC(O)c1cccc(Br)c1` (stereo unspecified), the EC50 hypnozoite quantity [1, 10] was greater than 50 µM, the “EC50 schizont net growth area” value [1, 10] was greater than 16.7 µM and the CC20 hepatic nuclei [2, 10] was 41.8 µM. The maximum inhibition [3, 10] was 111%.
In the case of `OCc1ccc(-c2cncc(Nc3cccc(Cl)c3)c2)cc1`, the EC50 hypnozoite quantity [1, 7] is reported as greater than 50 µM, the “EC50 schizont net growth area” value [1, 7] is reported as 2.54 µM and the CC20 hepatic nuclei [2, 7] is reported as greater than 16.7 µM. The maximum inhibition [3, 7] was 94.1%.
Work on `Oc1c(C(c2ccncc2)N2CCCC2)ccc2cccnc12` (stereo unspecified) yielded an EC50 hypnozoite quantity [1, 8] greater than 50 µM, a CC20 hepatic nuclei [2, 8] greater than 50 µM and a maximum inhibition [3, 8] of 80.2%.
For `c1ccn2c(Sc3ncnc4sccc34)ncc2c1`, the EC50 hypnozoite quantity [1, 6] was greater than 50 µM, the “EC50 schizont net growth area” value [1, 6] was greater than 5.56 µM and the CC20 hepatic nuclei [2, 6] was 41.4 µM. It also gave a maximum inhibition [3, 6] of 69.4%.
For `O=C(Nc1ccc([N+](=O)[O-])cc1)Nc1cc(OCC(F)(F)F)cc(OCC(F)(F)F)c1`, the EC50 hypnozoite quantity [1, 9] was greater than 10 µM, the “EC50 schizont net growth area” value [1, 9] was 3.33 µM and the CC20 hepatic nuclei [2, 9] was greater than 3.33 µM. For the same molecule, the maximum inhibition [3, 9] was 75.3%.
In the case of `N#CC(c1ccc(Br)cc1)c1ccc2c(C(F)(F)F)cc(C(F)(F)F)nc2n1` (stereo unspecified), the EC50 hypnozoite quantity [1, 9] is reported as 0.957 µM, the “EC50 schizont net growth area” value [1, 9] is reported as 1.24 µM and the CC20 hepatic nuclei [2, 9] is reported as 5.44 µM. The maximum inhibition [3, 9] was 86%.
In the case of `CC(C)(ON=C(C(=O)NC1C(=O)N2C(C(=O)[O-])=C(C[n+]3ccccc3)CSC12)c1csc(N)n1)C(=O)O` (stereo unspecified) [Ceftazidime pentahydrate], the EC50 hypnozoite quantity [1, 10] is reported as greater than 10 µM, the “EC50 schizont net growth area” value [1, 10] is reported as greater than 10 µM and the maximum inhibition [3, 10] is reported as 47.9%.
